These results are taken from patent publication US5667764A, “Compounds, compositions and methods for binding bio-affecting substances to surface membranes of bio-particles” (Zynaxis, Inc., priority 1992, dated 1997).

One series concerns myointimal thickening. The note with it: animal models; cited from earlier work.
Series [1] relates to rabbit red blood cell ghosts. As to the kind of experiment: Binding of anticoagulant conjugate to rabbit red blood cell ghosts. The following applies: 24 h, 37° C. The protocol:
Ghosts were then washed extensively and placed in phosphate buffered saline with lmM EDTA and 5% BSA for 24 h at 37° C. Samples were agitated and a 50 μl aliquot removed from each sample and placed in 200 μl of Triton X-100® in a microtiter plate well (representingtotal suspension fluorescence). The original samples were centrifuged for 10 minutes and a 50 μl sample of the ghost supernatant removed and placed in 200 μl of Triton X-100® (representing free fluorescence in the aqueous phase only). The fluorescence of all samples was determined on a fluorometric microtiter plate reader. Bound fluorescence was determined by subtraction of free from total after correction for background fluorescence from unstained ghosts; the percent free and bound fluorescence was determined by dividing the bound and free fluorescence by total fluorescence, respectively and multiplying by 100.

Another series concerns membrane ghosts. As to the kind of experiment: Membrane binding stability (MBS) assay in membrane ghosts with 5% albumin. The following applies: 24 hours, Table II. From the text: Determination of Membrane Binding Stability
For example, very stable binding to membranes might be required for applications such as delivery of therapeutic radionuclides to tumor sites, as loss of compound could lead to the radionuclide producing its toxic effect at non-tumor sites. On the other hand, more rapid loss of compound from biomembranes may be desirable for application involving controlled delivery rates of therapeutic agents. Accordingly, there is described hereinbelow an assay for determining MBS under conditions approximating those found in vivo.
In carrying out this assay, approximately physiological concentrations of serum albumin (5%) are used. […] To better approximate the effects of large fluid volumes to which labelled cells are exposed in vivo, the assay for MBS is carried out by suspending a decreasing number of labeled membrane ghosts in a fixed volume of albumin-containing saline. At 24 hours, the total amount of label present is determined by sampling the well mixed suspension; subsequently, the membrane ghosts are pelleted by centrifugation and the amount of label released into the supernatant is determined and expressed as a percent of total label. Percent retention is plotted against number of ghosts per ml. of suspension, and MBS is determined as the area under the curve between 5×10^7 ghosts/ml. and 4×10^8 ghosts/ml.

Another series deals with rabbit erythrocytes. The note with it: iv.
Series [2] relates to red blood cell ghosts (plasma membrane). Nature of the series: Membrane retention coefficient (MRC) in red blood cell ghosts. The format is binding. The note with it: 24 hr; Table II. The procedure: Determination of Membrane Retention Coefficient
The membrane retention coefficient (MRC) provides information regarding how well a given compound is retained in the plasma membrane of a cell and is determined as described below.
Generation of red blood cell ghosts for use as a model membrane is achieved by centrifuging whole blood at 300×g for 15 minutes, removal of the plasma and resuspension of the cell pellet in 0.83% (w/v) ammonium chloride. The ghosts are pelleted from the ammonium chloride by centrifuging at 10,000×g for 10 minutes. This ammonium chloride washing procedure is repeated a minimum of five times to insure that complete release of hemoglobin from the cells has occured. The ghosts are labeled with the compound in question at a concentration allowing for detection of the labeled ghosts by instrumental analysis or fluorescent microscopic methods, and at a concentration similar to those that would be used to label cells for a specific application as described above. For the determinations hereinbelow stock solutions of the compounds in question were prepared in ethanol at a molar concentration of 2×10^-3, and working dilutions of the compounds were prepared in iso-osmotic sucrose (52 g/500 ml distilled water). After incubation of the ghosts at an approximate concentration of 1×10^9 ghosts/ml in the working dilutions of the compounds for 10 minutes, the samples were centrifuged at 10,000×g to pellet the ghosts and the staining solution was aspirated from the samples. The labeled ghosts were resuspended in 1 ml of phosphate buffered saline solution containing 10% fetal bovine serum (PBS-FBS). Triplicate 20 ul aliquots were removed from each sample for the determination of the amount of total compound present. The samples were centrifuged as described above and triplicate 20 ul aliquots were removed from the supernatant for quantitative determination of amount of unbound compound present.
After sampling, the supernatant was aspirated and the red cell ghost pellet was resuspended in 1.0 ml of the PBS-FBS, which was once again sampled as described above. This procedure was repeated at least six times, allowing for detection of rapidly released compounds and was monitored after times equal to or greater than 24 hours to allow for the detection of more slowly released compounds. For the determination of the amount of compound present in each sample, the 20 ul aliquots were extracted into 3.0 ml of n-butanol by shaking. The samples were centrifuged at 3000×g to remove membrane debris and the butanol fractions were assayed for compound concentration. Fluorescent compounds are assayed in this manner using peak excitation and emission wave lengths for the particular compounds being assayed to determine the fluorescence units for each sample.
The determination of the amount of compound present in each sample as described above allows for the calculation of the MRC for each washing or fixed time point. The value is obtained by the following formula: […]
wherein CT represents the amount of compound present (in units determined by the method used to assay the compound) in the total sample and CS represents the amount of compound present in the supernatant sample for that particular time point. The comparison of the MRC values defines criteria for identification of the compounds of this invention, these criteria being: 1) the MRC values determined for each washing steps should have a value of at least about 90 and 2) the percent difference between MRC values over at least a 24 hour time period should be less than about 10%. [drawing 14]
The data provided in Table I below are the results from one experiment and serve as an example of the MRC determination. […]

Series [3] has as its system lumenal surface of the femoral arteries. Nature of the series: Retention at intravascular site. The class given is in vivo, rabbit. The procedure:
To determine whether the compounds of the invention will remain at an intravascular site once applied experiments were performed wherein ^125 I-substituted lipophilic cyanine, prepared as described in Example 2 (compound 12, Reaction Scheme 2) was applied to the lumenal surface of the femoral arteries of anesthetized rabbits. The femoral artery was surgically isolated and a small, proximal side branch was cannulated with a short length of PE10 tubing. A 1 cm arterial segment surrounding the side branch was occluded and 20-50μl of a solution containing ^125 I-substituted compound 12 was administered through the cannula to the occluded section and allowed to remain for 5-10 min. The ^125 I-substituted compound was then withdrawn along with the cannula, the side branch was permanently tied, the femoral artery occlusion removed to allow the return of blood flow, and the femoral incision was closed. ^125 I-radioactivity was then monitored at selected times over the next 3 weeks with a Ludium Model 2200 Scaler Ratemeter and a Model 44-17 2 inch crystal with windows optimized for the detection of ^125 I.

The text on series [4]:
The HPLC system used comprised a Waters Model 600E solvent delivery system with W600E gradient controller, U6K injector and Model 990 photodiode array detector. Chromatography conditions were as follows: Column: Waters Nova-Pak (phenyl, 4 μm, 3.9 mm×15 cm); Mobile phase: Solvent A=Water:Methanol:Acetonitrile:PIC A reagent (Waters) (395:25:80:4), Solvent B=Water:Methanol: Acetonitrile:PIC A reagent (225:25:250:4), Solvent C=Methanol:Water:PIC A reagent (490:15:4). Gradient conditions: 100% (A) to 60%:40% (A:B) over 20 minutes then to 100% (C) over 10 minutes followed by 100% (C) for 40 minutes. Flow rate: 2 mL/min. Detection: photodiode array from 240-575 nm.
The rate of acid hydrolysis of hydrazone conjugate (19) to produce 7-N-(5-oxopentanoyl) deacetyl colchicine was studied by HPLC at 3 different pH's.
Buffer solutions were prepared according to the procedures described by Gomori, "Methods in Enzymology", 16:138 (1955). HPLC conditions and retention times were the same as described above.
Compound solutions to be studied were prepared by adding 50 μl of hydrazone conjugate solution (1 mg/ml of methanol) to a screw capped vial (1 ml) containing citrate phosphate buffer (200 μl) of the desired pH. The vials were kept closed and the solutions were analysed by HPLC (350 nm detection) for conjugate (19) remaining and 7-N-(5-oxopentanoyl) deacetyl colchicine produced at 24 h and 48 h. Each hplc injection was […].

For another series, the system named is A10 cells. Nature of the series: Antiproliferative activity on A10 cells after one 10 minute application. The format is cell-based, rat. The note with it: for Cell count: 10 μM, 10 minute application. The protocol: To determine the antiproliferative action of the compounds of invention, in vitro studies were performed using A10 cells, a clonal cell line originally derived from the thoracic aorta of embryonic rats, that proliferate as myoblasts and develop into cells which phenotypically resemble smooth muscle cells (B. Kimes and B. Brandt, Exptl. Cell Res. 98:349 (1976). Typically, twelve-well plates were seeded with 2500-10,000 A10 cells/cm^2 in Dulbecco's Modified Eagles Medium (DMEM) with 10% fetal calf serum (FCS) and allowed to adhere and stabilize for 24 hours at 37° C. Test substances were then prepared in the required concentrations in appropriate cell binding media and, after aspirating the plating medium, applied to the individual wells at 37° C. for a period of only 10 minutes. The treatments were then aspirated, the wells washed 4 times with non-treatment containing medium and then placed in non-treatment containing DMEM with 10% FCS for the duration of the study. At various times after treatment application, triplicate wells were aspirated, the aspirate saved, and the wells treated with 0.25 ml of 0.25% trypsin to release the adherent cells. The enzymatic action of trypsin on the cells was stopped by addition of excess protein (1.75 ml DMEM+10% FCS), the aspirate returned to the wells, and an aliquot of the resultant cell suspension counted in a Coulter Counter (Model ZM with Sampling Stand II). Cell count was normalized to cells per square centimeter of growing area (surface area of well bottom).

Where [5] appears, read: labeling 10 μM (compound 7), 20 μM (conjugate, FITC-heparin).

Where two headings read alike, the source gives them in different places.

Text for rabbit erythrocytes: *Half life for loss of dye from rabbit erythrocytes after labeling and

As to `CN(C/C=C/C#CC(C)(C)C)Cc1cccc2ccccc12` [Terbinafine], in the series on myointimal thickening, the Myointimal thickening result was “reduction of myointimal thickening”.

Turning to `CCCCCCCCCCCCCCCCCCCCCC[N+]1=C(C=CC=C2N(CCCCCCCCCCCCCC)c3ccc(CNC=O)cc3C2(C)C)C(C)(C)c2ccccc21` [Compound 7, 1'-docosanyl-5(N-formylaminomethyl)-1-tetradecyl-3,3,3',3'tetramethylindocarbocyanine iodide], in series [1] (5% BSA), the “% Bound” value is reported as 94.96% and the “% Free” value was found to be 5.04%. In series [1] (setting [5]), the “Fluorescence intensity, supernatant” value was determined as 73.69 and the “Fluorescence intensity, suspension” value was found to be 1439.00.

As to `CCCCCCCCCCCC[N+]1=C(C=CC=C2N(CCCCCCCCCC)c3ccccc3C2(C)C)C(C)(C)c2ccccc21` [Compound 0], the “MBS (% of max.)” value with membrane ghosts is listed as 19 ± 3.5 % of max. Besides, in the series on rabbit erythrocytes, the “In vivo membrane half-life” value is below 24 h. Further, the “MRC# (at 24 hr.)” value in series [2] came out at 30 ± 4.7.

On to `CC(C)[C@@H]1NC(=O)[C@H](CCCCN)NC(=O)[C@@H](Cc2c[nH]c3ccccc23)NC(=O)[C@H](Cc2ccc(O)cc2)NC(=O)[C@@H](NC(=O)[C@H](N)Cc2ccc3ccccc3c2)CSSC[C@@H](C(=O)N[C@H](C(N)=O)[C@@H](C)O)NC1=O` [Angiopeptin], for which the Myointimal thickening result with myointimal thickening is listed as “reduction of myointimal thickening”.

For interferon-gamma, the Myointimal thickening entry in the series with myointimal thickening is reported as “reduction of myointimal thickening”.

Take `CCCCCCCCCCCCCCCCCCCCCC[N+]1=C(C=CC=C2N(CCCCCCCCCCCC)c3ccccc3C2(C)C)C(C)(C)c2ccccc21` [P]: the “MBS (% of max.)” value in the series on membrane ghosts is listed as 48 ± 3.1 % of max. In addition, the “In vivo membrane half-life” value in the series with rabbit erythrocytes was 33.6 h. The “MRC# (at 24 hr.)” value in series [2] was 65 ± 2.0.

`CCCCCCCCCCCCCCCCCCCCCCN1C(=CC=CC2=[N+](CCCCCCCCCCCCCC)c3ccccc3C2(C)C)C(C)(C)c2cc([125I])ccc21` [Compound 12, N-docosanyl-N'-tetradecyl-5-iodo-3,3,3',3'-tetramethylindocarbocyanine chloride]: the “Applied material (radioactivity) remaining within the artery” value in series [3] (after first 24 hour, mean±sem, n=4) was 34.0±10.9%. Besides, the “Elimination half-life after the first 24 hours” value in series [3] (after first 24 hours) was determined as 365.8 ± 69.4 h. The compound further had an Initial elimination half-life in series [3] (first 24 hour) of 18.5 ± 6.96 h. Further, in series [3] (rabbit, in vivo), the “Time detectable after application” value is reported as “at least 3 weeks”.

As to `CCCCCCCCCCCCCCCCCCCCCCN1C(=CC=CC2=[N+](CCCCCCCCCCCCCC)c3ccc(CNC(=O)CCCC(=O)NN=CCCCC(=O)N[C@H]4CCc5cc(OC)c(OC)c(OC)c5-c5ccc(OC)c(=O)cc54)cc3C2(C)C)C(C)(C)c2ccccc21` [Compound 19, 7-N(5-oxopentanoyl) deacetyl colchicine Lipophilic Cyanine Hydrazone Conjugate], in series [4] (pH 4.21, 5.74, 7.35), the “Free colchicine hydrolysis product detected by HPLC” value was “the expected aidehyde, compound 18”. In addition, the “Cleavage of (19) to produce (18)” value in series [4] (pH 4.21, 24 hours) was 78%; in series [4] (pH 4.21, 48 hours), 100%; in series [4] (pH 5.74, 24 hours), 45%; in series [4] (pH 5.74, 48 hours), 100%; in series [4] (pH 7.35, 24 hours), 36%; in series [4] (pH 7.35, 48 hours), 77%. Besides, the Cell count is reported as 2291.12 cells per square centimeter with A10 cells (day 0); 2625.33 cells per square centimeter with A10 cells (day 1); 2369.45 cells per square centimeter in the series with A10 cells (day 2); 2206.27 cells per square centimeter in the series with A10 cells (day 3); 8800.26 cells per square centimeter with A10 cells (day 6); 10895.65 cells per square centimeter with A10 cells (day 7). In addition, in the series with A10 cells (flow cytometry), the Cell-associated fluorescence result is given as “significant cell-associated fluorescence”.
